Measurements: PMC7316778 (Nature Communications, 2020)
“And” between values parts separate entries of the source, which are not always exact repeats. Equal values may be shown once. Read-outs that look alike come from different tables or passages of the source.

Columns and labels:
Test in all cases: SelectScreen kinase assay
IKBKE (IKK epsilon) = IKBKE (IKK epsilon) (Homo sapiens, UniProt Q14164); conditions: 1 h, 1 μM WEL028, 1 h preincubation
Procedure: (§1) Selectivity profiling assays were performed by the Invitrogen SelectScreen™ Services. […] The concentration of ATP was selected to be equal to the KM, unless indicated otherwise.

CDK5 (Inactive) = CDK5 (Inactive) (Homo sapiens, UniProt Q00535)
Procedure: as §1

PASK = PASK (Homo sapiens, UniProt Q96RG2); conditions: for Inhibition at 1 µM (%): PASK, ZLYTE, ATP Km app
Procedure: as §1

INSRR (IRR) = INSRR (IRR) (Homo sapiens, UniProt P14616); conditions: 1 h, 1 μM WEL028, 1 h preincubation
Procedure: as §1

MAP2K3 (MEK3) = target: T1, MAP2K3 (MEK3) (Homo sapiens, UniProt P46734)
T1 sequence (P46734 1-347): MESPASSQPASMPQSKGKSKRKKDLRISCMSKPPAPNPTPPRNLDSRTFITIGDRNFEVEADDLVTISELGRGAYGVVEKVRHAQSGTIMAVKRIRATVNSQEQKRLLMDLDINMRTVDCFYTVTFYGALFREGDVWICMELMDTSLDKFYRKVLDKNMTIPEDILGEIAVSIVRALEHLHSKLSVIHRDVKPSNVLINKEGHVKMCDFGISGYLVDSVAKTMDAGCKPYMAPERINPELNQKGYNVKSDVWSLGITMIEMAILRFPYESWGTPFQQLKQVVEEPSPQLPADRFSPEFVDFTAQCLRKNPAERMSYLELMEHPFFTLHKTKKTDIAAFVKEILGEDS
Procedure: as §1

CDK7/cyclin H/MNAT1 = CDK7/cyclin H/MNAT1 (Homo sapiens, UniProt P50613)
Procedure: as §1

FGFR3 K650E = FGFR3 K650E (Homo sapiens, UniProt P22607, K650E); conditions: for Inhibition at 1 µM (%): FGFR3 K650E, ZLYTE, ATP Km app
Procedure: as §1

CDK5/p25 = CDK5/p25 (Homo sapiens, UniProt Q00535); conditions: 1 h, 1 μM WEL028, 1 h preincubation
Procedure: as §1

PIK3C3 (hVPS34) = PIK3C3 (hVPS34) (Homo sapiens, UniProt Q8NEB9)
Procedure: as §1

[1] = target: PIK3CB/PIK3R2 (p110 beta/p85 beta) (Homo sapiens, UniProt P42338)
Procedure: as §1

NTRK2 (TRKB) = NTRK2 (TRKB) (Homo sapiens, UniProt Q16620)
Procedure: as §1

CDK8/cyclin C = CDK8/cyclin C (Homo sapiens, UniProt P49336); conditions: read-out: Inhibition at 1 µM (%)
Procedure: as §1

CDC42 BPA (MRCKA) = CDC42 BPA (MRCKA) (Homo sapiens, UniProt Q5VT25)
Procedure: as §1

PIK3C2B (PI3K-C2 beta) = PIK3C2B (PI3K-C2 beta) (Homo sapiens, UniProt O00750)
Procedure: as §1

MAP2K4 (MEK4) = target: T2, MAP2K4 (MEK4) (Homo sapiens, UniProt P45985)
T2 sequence (P45985 1-399): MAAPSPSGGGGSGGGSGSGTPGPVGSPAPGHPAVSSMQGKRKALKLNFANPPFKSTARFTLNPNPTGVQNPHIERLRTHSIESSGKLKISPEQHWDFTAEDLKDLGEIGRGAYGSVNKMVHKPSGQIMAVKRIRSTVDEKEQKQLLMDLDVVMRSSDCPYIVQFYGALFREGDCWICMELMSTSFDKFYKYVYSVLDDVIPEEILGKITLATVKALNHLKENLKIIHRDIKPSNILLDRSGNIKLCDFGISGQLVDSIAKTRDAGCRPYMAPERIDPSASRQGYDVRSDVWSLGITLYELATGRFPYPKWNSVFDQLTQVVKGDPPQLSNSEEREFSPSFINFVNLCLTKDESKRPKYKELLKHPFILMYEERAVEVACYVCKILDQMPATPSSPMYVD
Procedure: as §1

CDK18/cyclin Y = CDK18/cyclin Y (Homo sapiens, UniProt Q07002); conditions: for Inhibition at 1 µM (%): CDK18/cyclin Y, ZLYTE, ATP Km app
Procedure: as §1

CDK9/cyclin T1 = CDK9/cyclin T1 (Homo sapiens, UniProt P50750)
Procedure: as §1

CLK2 = CLK2 (Homo sapiens, UniProt P49760); conditions: 1 h, 1 μM WEL028, 1 h preincubation
Procedure: as §1

[2] = target: PIK3CD/PIK3R1 (p110d/p85a) (Homo sapiens, UniProt O00329); conditions: 1 h, 1 μM WEL028, 1 h preincubation
Procedure: as §1

[3] = 1 h, 1 μM WEL028, 1 h preincubation

Chain of CDK9/cyclin T1 (P50750 whole entry): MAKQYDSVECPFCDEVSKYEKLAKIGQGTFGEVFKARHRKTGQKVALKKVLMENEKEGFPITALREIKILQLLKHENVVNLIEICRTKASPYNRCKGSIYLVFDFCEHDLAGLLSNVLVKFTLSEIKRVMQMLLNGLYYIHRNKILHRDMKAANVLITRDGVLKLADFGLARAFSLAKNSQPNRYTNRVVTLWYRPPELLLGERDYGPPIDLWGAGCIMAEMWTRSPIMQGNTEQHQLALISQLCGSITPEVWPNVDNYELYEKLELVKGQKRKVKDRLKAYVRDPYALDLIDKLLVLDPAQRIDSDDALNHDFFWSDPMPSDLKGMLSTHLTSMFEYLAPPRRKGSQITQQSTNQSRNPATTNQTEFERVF
Chain of CDK9/cyclin T1 (O60563 whole entry partner): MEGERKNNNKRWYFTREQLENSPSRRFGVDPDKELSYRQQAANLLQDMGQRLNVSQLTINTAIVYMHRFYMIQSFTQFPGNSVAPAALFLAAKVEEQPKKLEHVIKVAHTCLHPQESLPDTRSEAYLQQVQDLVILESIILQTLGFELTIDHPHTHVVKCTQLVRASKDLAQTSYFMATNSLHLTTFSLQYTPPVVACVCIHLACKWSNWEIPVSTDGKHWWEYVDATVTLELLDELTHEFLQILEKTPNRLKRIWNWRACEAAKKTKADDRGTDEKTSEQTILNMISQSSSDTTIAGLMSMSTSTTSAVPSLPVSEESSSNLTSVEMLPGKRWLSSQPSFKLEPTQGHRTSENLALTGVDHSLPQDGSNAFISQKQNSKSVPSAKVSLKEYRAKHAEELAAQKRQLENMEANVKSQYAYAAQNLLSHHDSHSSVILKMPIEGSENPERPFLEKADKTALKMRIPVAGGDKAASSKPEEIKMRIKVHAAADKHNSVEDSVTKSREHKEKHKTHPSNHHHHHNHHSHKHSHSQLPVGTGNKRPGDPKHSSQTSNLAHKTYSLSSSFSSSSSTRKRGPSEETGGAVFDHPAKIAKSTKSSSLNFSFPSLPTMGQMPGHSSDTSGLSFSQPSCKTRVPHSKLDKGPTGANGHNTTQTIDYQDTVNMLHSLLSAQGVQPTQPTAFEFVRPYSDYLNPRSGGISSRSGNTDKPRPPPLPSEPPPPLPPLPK
Chain of CDK18/cyclin Y (Q07002 whole entry): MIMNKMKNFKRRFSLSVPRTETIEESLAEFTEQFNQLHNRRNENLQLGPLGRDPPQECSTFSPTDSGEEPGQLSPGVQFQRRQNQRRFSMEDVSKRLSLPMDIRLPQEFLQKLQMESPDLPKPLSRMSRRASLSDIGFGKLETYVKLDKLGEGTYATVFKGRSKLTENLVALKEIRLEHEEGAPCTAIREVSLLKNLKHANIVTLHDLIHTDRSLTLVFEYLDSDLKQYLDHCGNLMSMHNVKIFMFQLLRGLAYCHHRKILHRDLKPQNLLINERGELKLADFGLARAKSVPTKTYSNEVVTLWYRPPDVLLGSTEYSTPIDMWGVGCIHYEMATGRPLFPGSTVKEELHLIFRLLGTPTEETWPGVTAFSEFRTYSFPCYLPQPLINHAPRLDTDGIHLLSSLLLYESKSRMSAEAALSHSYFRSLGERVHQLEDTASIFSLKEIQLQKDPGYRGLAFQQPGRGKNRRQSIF
Chain of CDK18/cyclin Y (Q8ND76 whole entry partner): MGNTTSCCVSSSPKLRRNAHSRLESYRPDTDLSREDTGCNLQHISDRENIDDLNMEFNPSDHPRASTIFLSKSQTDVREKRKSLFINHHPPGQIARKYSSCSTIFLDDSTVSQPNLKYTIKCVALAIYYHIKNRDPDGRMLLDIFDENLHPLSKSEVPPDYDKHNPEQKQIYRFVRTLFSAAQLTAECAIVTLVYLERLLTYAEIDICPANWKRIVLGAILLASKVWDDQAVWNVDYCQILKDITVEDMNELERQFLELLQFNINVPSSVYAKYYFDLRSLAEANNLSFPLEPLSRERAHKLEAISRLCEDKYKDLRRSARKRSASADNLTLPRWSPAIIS
Chain of FGFR3 K650E (P22607 23-806 K650E): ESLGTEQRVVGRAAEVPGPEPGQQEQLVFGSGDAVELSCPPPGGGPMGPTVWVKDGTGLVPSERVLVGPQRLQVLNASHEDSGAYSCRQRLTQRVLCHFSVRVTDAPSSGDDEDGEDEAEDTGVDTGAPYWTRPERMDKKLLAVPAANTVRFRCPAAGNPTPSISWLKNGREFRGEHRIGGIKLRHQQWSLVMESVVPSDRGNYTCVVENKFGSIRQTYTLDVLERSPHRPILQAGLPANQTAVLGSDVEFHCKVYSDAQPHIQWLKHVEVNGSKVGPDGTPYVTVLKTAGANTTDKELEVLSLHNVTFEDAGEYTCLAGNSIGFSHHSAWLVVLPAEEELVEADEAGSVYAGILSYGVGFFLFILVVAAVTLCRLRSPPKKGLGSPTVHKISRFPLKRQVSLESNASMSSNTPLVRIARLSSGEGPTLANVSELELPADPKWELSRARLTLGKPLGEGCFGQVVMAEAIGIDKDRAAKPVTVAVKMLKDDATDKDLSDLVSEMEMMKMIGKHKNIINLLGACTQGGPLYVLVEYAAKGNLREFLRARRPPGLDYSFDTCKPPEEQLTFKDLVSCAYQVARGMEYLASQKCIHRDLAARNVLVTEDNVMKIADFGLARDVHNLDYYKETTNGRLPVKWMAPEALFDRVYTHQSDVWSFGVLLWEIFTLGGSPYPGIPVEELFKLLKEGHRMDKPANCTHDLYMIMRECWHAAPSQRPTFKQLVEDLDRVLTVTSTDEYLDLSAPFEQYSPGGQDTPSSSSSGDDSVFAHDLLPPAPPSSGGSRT
Chain of PIK3CB/PIK3R2 (p110 beta/p85 beta) (P42338 whole entry): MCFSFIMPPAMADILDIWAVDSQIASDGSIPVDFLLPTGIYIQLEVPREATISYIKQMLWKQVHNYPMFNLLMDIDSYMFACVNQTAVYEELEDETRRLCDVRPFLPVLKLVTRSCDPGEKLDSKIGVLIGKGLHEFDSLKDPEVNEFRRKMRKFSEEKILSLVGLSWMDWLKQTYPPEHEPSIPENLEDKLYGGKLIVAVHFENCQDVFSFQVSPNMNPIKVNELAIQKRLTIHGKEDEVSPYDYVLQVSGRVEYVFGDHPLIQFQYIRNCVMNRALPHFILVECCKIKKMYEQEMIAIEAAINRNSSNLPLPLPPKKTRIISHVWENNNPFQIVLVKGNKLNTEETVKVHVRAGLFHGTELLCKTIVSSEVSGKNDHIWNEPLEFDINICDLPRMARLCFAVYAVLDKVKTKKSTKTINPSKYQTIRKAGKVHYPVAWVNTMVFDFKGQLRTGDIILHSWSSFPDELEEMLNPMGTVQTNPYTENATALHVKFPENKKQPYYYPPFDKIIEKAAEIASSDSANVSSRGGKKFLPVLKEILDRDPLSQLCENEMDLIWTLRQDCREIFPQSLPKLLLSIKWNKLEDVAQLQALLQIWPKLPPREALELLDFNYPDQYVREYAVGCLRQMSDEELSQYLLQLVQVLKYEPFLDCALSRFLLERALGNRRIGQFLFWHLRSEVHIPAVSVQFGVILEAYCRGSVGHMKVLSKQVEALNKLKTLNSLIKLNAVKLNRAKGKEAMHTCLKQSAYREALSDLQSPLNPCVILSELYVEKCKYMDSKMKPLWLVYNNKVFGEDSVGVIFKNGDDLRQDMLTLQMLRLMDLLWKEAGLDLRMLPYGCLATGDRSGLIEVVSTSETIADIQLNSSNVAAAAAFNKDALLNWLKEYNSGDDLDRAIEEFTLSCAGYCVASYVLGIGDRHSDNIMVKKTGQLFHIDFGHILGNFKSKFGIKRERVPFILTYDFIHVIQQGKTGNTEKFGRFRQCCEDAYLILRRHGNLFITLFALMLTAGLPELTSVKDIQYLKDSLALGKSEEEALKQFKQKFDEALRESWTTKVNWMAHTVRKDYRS
Chain of PIK3CB/PIK3R2 (p110 beta/p85 beta) (O00459 whole entry partner): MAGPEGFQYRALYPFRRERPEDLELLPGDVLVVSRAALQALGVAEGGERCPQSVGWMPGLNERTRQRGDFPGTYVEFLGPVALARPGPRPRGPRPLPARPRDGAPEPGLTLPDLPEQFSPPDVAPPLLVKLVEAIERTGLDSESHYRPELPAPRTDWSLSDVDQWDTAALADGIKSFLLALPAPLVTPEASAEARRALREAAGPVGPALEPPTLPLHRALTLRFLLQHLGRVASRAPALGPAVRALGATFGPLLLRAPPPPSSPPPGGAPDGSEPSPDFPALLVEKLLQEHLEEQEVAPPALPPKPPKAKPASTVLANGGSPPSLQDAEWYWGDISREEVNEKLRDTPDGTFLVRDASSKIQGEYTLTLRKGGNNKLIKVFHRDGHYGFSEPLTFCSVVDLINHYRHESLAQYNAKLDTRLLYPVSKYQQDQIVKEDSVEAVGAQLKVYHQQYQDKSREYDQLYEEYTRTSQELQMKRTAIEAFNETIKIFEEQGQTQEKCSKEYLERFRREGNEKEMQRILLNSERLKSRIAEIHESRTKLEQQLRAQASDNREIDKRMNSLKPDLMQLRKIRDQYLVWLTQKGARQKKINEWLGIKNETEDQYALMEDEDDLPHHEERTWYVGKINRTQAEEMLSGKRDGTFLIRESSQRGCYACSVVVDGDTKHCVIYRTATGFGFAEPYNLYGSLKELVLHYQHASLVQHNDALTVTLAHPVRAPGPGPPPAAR
Chain of CDK5 (Inactive) (Q00535 whole entry): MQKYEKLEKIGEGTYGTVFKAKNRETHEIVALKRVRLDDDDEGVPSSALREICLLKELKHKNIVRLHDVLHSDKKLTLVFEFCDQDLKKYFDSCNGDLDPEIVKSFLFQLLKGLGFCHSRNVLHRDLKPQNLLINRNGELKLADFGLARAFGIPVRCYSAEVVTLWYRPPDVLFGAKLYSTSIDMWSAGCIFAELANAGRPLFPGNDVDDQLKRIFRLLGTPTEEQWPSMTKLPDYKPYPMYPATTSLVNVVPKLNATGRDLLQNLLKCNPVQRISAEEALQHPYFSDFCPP

For `C#CCOc1ccc(Nc2ncc(Cl)c(Nc3ccccc3NC(=O)C=C)n2)c(OC)c1` [Compound 6], the inhibition at 1 µM (IKBKE (IKK epsilon)) was 2%, the inhibition at 1 µM (CDK5 (Inactive); [3]) was 3% and the “Inhibition at 1 µM (%)” value (CDK5 (Inactive); CDK5 (Inactive), 1 µM, LanthaScreen Binding, listed as WEL028, 1 µM) was 2%. For the same compound, the inhibition at 1 µM (CDK5 (Inactive); read-out: Inhibition at 1 µM (%), CDK5 (Inactive), 1 µM, LanthaScreen Binding) was 3%, the inhibition at 1 µM (PASK; [3]) was 2% and the “Inhibition at 1 µM (%)” value (PASK) was -3%. The “Inhibition at 1 µM (%)” value (PASK; listed as WEL028, 1 µM) was 7%, the inhibition at 1 µM (INSRR (IRR)) was 9% and the inhibition at 1 µM (MAP2K3 (MEK3); [3]) was 46%. The “Inhibition at 1 µM (%)” value (MAP2K3 (MEK3); MAP2K3 (MEK3), 1 µM, LanthaScreen Binding, listed as WEL028, 1 µM) was 53%, the inhibition at 1 µM (MAP2K3 (MEK3); read-out: Inhibition at 1 µM (%), MAP2K3 (MEK3), 1 µM, LanthaScreen Binding) was 38% and the inhibition at 1 µM (CDK7/cyclin H/MNAT1; [3]) was 6%. For the same compound, the “Inhibition at 1 µM (%)” value (CDK7/cyclin H/MNAT1; CDK7/cyclin H/MNAT1, 1 µM, Adapta, ATP Km app, listed as WEL028, 1 µM) was 2% and 11%, the inhibition at 1 µM (FGFR3 K650E; [3]) was 8% and the “Inhibition at 1 µM (%)” value (FGFR3 K650E) was 12%. The “Inhibition at 1 µM (%)” value (FGFR3 K650E; listed as WEL028, 1 µM) was 4%, the inhibition at 1 µM (CDK5/p25) was 2% and the inhibition at 1 µM (PIK3C3 (hVPS34); [3]) was 11%. The “Inhibition at 1 µM (%)” value (PIK3C3 (hVPS34); PIK3C3 (hVPS34), 1 µM, Adapta, ATP Km app, listed as WEL028, 1 µM) was 12%, the inhibition at 1 µM (PIK3C3 (hVPS34); read-out: Inhibition at 1 µM (%), PIK3C3 (hVPS34), 1 µM, Adapta, ATP Km app) was 11% and the inhibition at 1 µM [1, 3] was 2%. The “Inhibition at 1 µM (%)” value ([1]; PIK3CB/PIK3R2 (p110 beta/p85 beta), 1 µM, Adapta, ATP 10, listed as WEL028, 1 µM) was 4% and -1%, the inhibition at 1 µM (NTRK2 (TRKB); [3]) was 5% and the “Inhibition at 1 µM (%)” value (NTRK2 (TRKB); NTRK2 (TRKB), 1 µM, ZLYTE, ATP Km app, listed as WEL028, 1 µM) was 0% and 9%. For the same compound, the inhibition at 1 µM (CDK8/cyclin C) was 0%, the inhibition at 1 µM (CDC42 BPA (MRCKA); [3]) was -7% and the “Inhibition at 1 µM (%)” value (CDC42 BPA (MRCKA); CDC42 BPA (MRCKA), 1 µM, ZLYTE, ATP Km app) was -20%. For the same compound, the inhibition at 1 µM (PIK3C2B (PI3K-C2 beta); 1 h) was -1%, the inhibition at 1 µM (PIK3C2B (PI3K-C2 beta); read-out: Inhibition at 1 µM (%)) was -1% and the IC50 (MAP2K4 (MEK4)) was 3.98 nM. For the same compound, the inhibition at 1 µM (MAP2K4 (MEK4); [3]) was 104%, the Apparent fold selectivity (MAP2K4 (MEK4); IC50 on that kinase divided by IC50 on FES^S700C) was 1 fold and the inhibition at 1 µM (MAP2K4 (MEK4); read-out: Inhibition at 1 µM (%), MAP2K4 (MEK4), 1 µM, LanthaScreen Binding) was 103%. For the same compound, the inhibition at 1 µM (CDK18/cyclin Y; [3]) was 1%, the “Inhibition at 1 µM (%)” value (CDK18/cyclin Y) was 3% and the “Inhibition at 1 µM (%)” value (CDK18/cyclin Y; listed as WEL028, 1 µM) was -1%. The inhibition at 1 µM (CDK9/cyclin T1; [3]) was 16%, the “Inhibition at 1 µM (%)” value (CDK9/cyclin T1; CDK9/cyclin T1, 1 µM, Adapta, ATP Km app, listed as WEL028, 1 µM) was 12% and the inhibition at 1 µM (CDK9/cyclin T1; read-out: Inhibition at 1 µM (%), CDK9/cyclin T1, 1 µM, Adapta, ATP Km app) was 20%. For the same compound, the inhibition at 1 µM (CLK2) was 1% and the inhibition at 1 µM [2] was 8%.
